According to ChEMBL document CHEMBL5543097, “Synthesis and structure-activity relationships of novel 14-membered 2-fluoro ketolides with structural modification at the C11 position” (Eur J Med Chem, 2024):
In brackets after ≈: the same amount, converted by molar mass.

Experiments:
[1] = tested on: Staphylococcus epidermidis; assay: Antibacterial activity against erythromycin-resistant Staphylococcus epidermidis 19-6 assessed as inhibition of visible bacterial growth incubated for 18 hrs by broth microdilution method; format: functional
Moraxella catarrhalis [2] = assay: Antibacterial activity against Moraxella catarrhalis BCA 19-5 assessed as inhibition of bacterial growth incubated for 24 hrs by CLSI based broth microdilution method; format: functional; conditions: Moraxella catarrhalis, BCA 19-5, 24 h, read-out: MIC
Streptococcus pneumoniae [3] = assay: Antibacterial activity against erythromycin-resistant Streptococcus pneumoniae SPN19-14 assessed as inhibition of visible bacterial growth incubated for 18 hrs by broth microdilution method; format: functional
[4] = tested on: Staphylococcus epidermidis; assay: Antibacterial activity against erythromycin-resistant Staphylococcus epidermidis 19-4 assessed as inhibition of visible bacterial growth incubated for 18 hrs by broth microdilution method; format: functional
Streptococcus agalactiae [5] = assay: Antibacterial activity against erythromycin-resistant Streptococcus agalactiae 19-9 assessed as inhibition of visible bacterial growth incubated for 18 hrs by broth microdilution method; format: functional
Moraxella catarrhalis [6] = assay: Antibacterial activity against Moraxella catarrhalis BCA 19-6 assessed as inhibition of bacterial growth incubated for 24 hrs by CLSI based broth microdilution method; format: functional; conditions: Moraxella catarrhalis, BCA 19-6, 24 h, read-out: MIC
Haemophilus influenzae [7] = assay: Antibacterial activity against Haemophilus influenzae HIN 19-15 assessed as inhibition of bacterial growth incubated for 20 to 24 hrs by CLSI based broth microdilution method; format: functional; conditions: time 20-24 hrs
[8] = tested on: Staphylococcus epidermidis; assay: Antibacterial activity against erythromycin-resistant Staphylococcus epidermidis 19-5 assessed as inhibition of visible bacterial growth incubated for 18 hrs by broth microdilution method; format: functional
Moraxella catarrhalis [9] = assay: Antibacterial activity against Moraxella catarrhalis BCA 19-31 assessed as inhibition of bacterial growth incubated for 24 hrs by CLSI based broth microdilution method; format: functional; conditions: BCA 19-31, 24 h
[10] = tested on: Staphylococcus epidermidis; assay: Antibacterial activity against erythromycin-resistant Staphylococcus epidermidis 19-8 assessed as inhibition of visible bacterial growth incubated for 18 hrs by broth microdilution method; format: functional
[11] = tested on: Staphylococcus epidermidis; assay: Antibacterial activity against erythromycin-resistant Staphylococcus epidermidis 19-11 assessed as inhibition of visible bacterial growth incubated for 18 hrs by broth microdilution method; format: functional
[12] = tested on: Staphylococcus epidermidis; assay: Antibacterial activity against erythromycin-resistant Staphylococcus epidermidis 19-9 assessed as inhibition of visible bacterial growth incubated for 18 hrs by broth microdilution method; format: functional
[13] = Cytotoxicity against mouse AML12 cells assessed as reduction in cell viability incubated for 48 hrs by MTT assay; format: toxicity, cell-based
Streptococcus pyogenes = assay: Antibacterial activity against erythromycin-resistant Streptococcus pyogenes ATCC 19615 assessed as inhibition of visible bacterial growth incubated for 18 hrs by broth microdilution method; format: functional
Streptococcus pneumoniae [14] = assay: Antibacterial activity against erythromycin-resistant Streptococcus pneumoniae SPN19-8 assessed as inhibition of visible bacterial growth incubated for 18 hrs by broth microdilution method; format: functional
Haemophilus influenzae [15] = assay: Antibacterial activity against Haemophilus influenzae HIN 19-18 assessed as inhibition of bacterial growth incubated for 20 to 24 hrs by CLSI based broth microdilution method; format: functional; conditions: HIN 19-18, time 20-24 hrs
Haemophilus influenzae [16] = assay: Antibacterial activity against Haemophilus influenzae HIN 20-18 assessed as inhibition of bacterial growth incubated for 20 to 24 hrs by CLSI based broth microdilution method; format: functional; conditions: time 20-24 hrs
Streptococcus pneumoniae [17] = assay: Antibacterial activity against erythromycin-resistant Streptococcus pneumoniae SPN19-13 assessed as inhibition of visible bacterial growth incubated for 18 hrs by broth microdilution method; format: functional
Streptococcus agalactiae [18] = assay: Antibacterial activity against erythromycin-resistant Streptococcus agalactiae 19-8 assessed as inhibition of visible bacterial growth incubated for 18 hrs by broth microdilution method; format: functional

Compound	MIC [1] [µg/mL]	MIC (Moraxella catarrhalis [2]) [µg/mL]	MIC (Streptococcus pneumoniae [3]) [µg/mL]	MIC [4] [µg/mL]	MIC (Streptococcus agalactiae [5]) [µg/mL]	MIC (Moraxella catarrhalis [6]) [µg/mL]	MIC (Haemophilus influenzae [7]) [µg/mL]	MIC [8] [µg/mL]	MIC (Moraxella catarrhalis [9]) [µg/mL]	MIC [10] [µg/mL]	MIC [11] [µg/mL]	MIC [12] [µg/mL]	CC50 at 48 h [13] [µM]	MIC (Streptococcus pyogenes) [µg/mL]	MIC (Streptococcus pneumoniae [14]) [µg/mL]	MIC (Haemophilus influenzae [15]) [µg/mL]	MIC (Haemophilus influenzae [16]) [µg/mL]	MIC (Streptococcus pneumoniae [17]) [µg/mL]	MIC (Streptococcus agalactiae [18]) [µg/mL]
CC[C@H]1OC(=O)[C@@](C)(F)C(=O)[C@H](C)[C@@H](O[C@@H]2O[C@H](C)C[C@H](N(C)C)[C@H]2O)[C@](C)(OC)C[C@@H](C)C(=O)[C@H](C)[C@H]2N(CCCOC(=O)Nc3ccccc3Cl)C(=O)O[C@]12C	0.125 (≈ 0.148 µM)	0.25 (≈ 0.297 µM)	0.25 (≈ 0.297 µM)	0.06 (≈ 0.0712 µM)	1 (≈ 1.19 µM)	0.5 (≈ 0.594 µM)	8 (≈ 9.5 µM)	< 0.03	1.12 (≈ 1.34 µM)	0.125 (≈ 0.148 µM)	< 0.06	0.25 (≈ 0.297 µM)	36.2	< 0.03	0.25 (≈ 0.297 µM)	8 (≈ 9.5 µM)	16 (≈ 19 µM)	0.25 (≈ 0.297 µM)	
CC[C@H]1OC(=O)[C@@](C)(F)C(=O)[C@H](C)[C@@H](O[C@@H]2O[C@H](C)C[C@H](N(C)C)[C@H]2O)[C@](C)(OC)C[C@@H](C)C(=O)[C@H](C)[C@H]2N(CCCOC(=O)Nc3ccc(Cl)cc3C)C(=O)O[C@]12C	0.125 (≈ 0.146 µM)	0.125 (≈ 0.146 µM)	0.125 (≈ 0.146 µM)	0.03 (≈ 0.035 µM)	0.5 (≈ 0.584 µM)	0.25 (≈ 0.292 µM)	8 (≈ 9.34 µM)	< 0.03	0.125 (≈ 0.146 µM)	0.125 (≈ 0.146 µM)	0.06 (≈ 0.0701 µM)	< 0.03	12.8	< 0.03	0.25 (≈ 0.292 µM)	4 (≈ 4.67 µM)	16 (≈ 18.7 µM)	0.125 (≈ 0.146 µM)	
CCOc1ccc(NC(=O)OCCCN2C(=O)O[C@]3(C)[C@@H](CC)OC(=O)[C@@](C)(F)C(=O)[C@H](C)[C@@H](O[C@@H]4O[C@H](C)C[C@H](N(C)C)[C@H]4O)[C@](C)(OC)C[C@@H](C)C(=O)[C@H](C)[C@@H]23)cc1	0.25 (≈ 0.293 µM)	0.5 (≈ 0.587 µM)	0.5 (≈ 0.587 µM)	0.5 (≈ 0.587 µM)	2 (≈ 2.35 µM)	1 (≈ 1.17 µM)	> 16	0.06 (≈ 0.0704 µM)	0.5 (≈ 0.587 µM)	0.25 (≈ 0.293 µM)	0.125 (≈ 0.147 µM)	0.5 (≈ 0.587 µM)	36.5	< 0.03	0.25 (≈ 0.293 µM)	16 (≈ 18.8 µM)	> 16	0.5 (≈ 0.587 µM)	
CC[C@H]1OC(=O)[C@@](C)(F)C(=O)[C@H](C)[C@@H](O[C@@H]2O[C@H](C)C[C@H](N(C)C)[C@H]2O)[C@](C)(OC)C[C@@H](C)C(=O)[C@H](C)[C@H]2N(CCCOC(=O)Nc3cc(C)oc3C(F)(F)F)C(=O)O[C@]12C		0.5 (≈ 0.568 µM)				0.5 (≈ 0.568 µM)	0.5 (≈ 0.568 µM)		0.5 (≈ 0.568 µM)				35.9			4 (≈ 4.55 µM)	> 16		
CC[C@H]1OC(=O)[C@@](C)(F)C(=O)[C@H](C)[C@@H](O[C@@H]2O[C@H](C)C[C@H](N(C)C)[C@H]2O)[C@](C)(OC)C[C@@H](C)C(=O)[C@H](C)[C@H]2N(CCCOC(=O)Nc3ccc(-c4ncccn4)cc3)C(=O)O[C@]12C	0.125 (≈ 0.141 µM)	0.25 (≈ 0.282 µM)	0.25 (≈ 0.282 µM)	0.06 (≈ 0.0677 µM)	4 (≈ 4.51 µM)	45 (≈ 50.8 µM)	14 (≈ 15.8 µM)	< 0.03	0.25 (≈ 0.282 µM)	0.125 (≈ 0.141 µM)	< 0.03	0.125 (≈ 0.141 µM)	20.4	< 0.03	0.25 (≈ 0.282 µM)	16 (≈ 18.1 µM)	> 16	0.5 (≈ 0.564 µM)	
CC[C@H]1OC(=O)[C@@](C)(F)C(=O)[C@H](C)[C@@H](O[C@@H]2O[C@H](C)C[C@H](N(C)C)[C@H]2O)[C@](C)(OC)C[C@@H](C)C(=O)[C@H](C)[C@H]2N(CCCOC(=O)Nc3c(F)cccc3F)C(=O)O[C@]12C	0.125 (≈ 0.148 µM)	0.122 (≈ 0.145 µM)	0.125 (≈ 0.148 µM)	0.03 (≈ 0.0355 µM)	1 (≈ 1.18 µM)	0.125 (≈ 0.148 µM)	4 (≈ 4.74 µM)	< 0.03	0.125 (≈ 0.148 µM)	0.125 (≈ 0.148 µM)	< 0.03	0.25 (≈ 0.296 µM)	> 100	< 0.03	0.125 (≈ 0.148 µM)	4 (≈ 4.74 µM)	16 (≈ 19 µM)	0.125 (≈ 0.148 µM)	
CC[C@H]1OC(=O)[C@@](C)(F)C(=O)[C@H](C)[C@@H](O[C@@H]2O[C@H](C)C[C@H](N(C)C)[C@H]2O)[C@](C)(OC)C[C@@H](C)C(=O)[C@H](C)[C@H]2N(CCCOC(=O)Nc3ccc(Cl)cc3)C(=O)O[C@]12C	< 0.03	9.12 (≈ 10.8 µM)	0.125 (≈ 0.148 µM)	0.03 (≈ 0.0356 µM)	1 (≈ 1.19 µM)	0.25 (≈ 0.297 µM)	8 (≈ 9.5 µM)	< 0.03	11.1 (≈ 13.2 µM)	0.03 (≈ 0.0356 µM)	< 0.03	0.125 (≈ 0.148 µM)	26	< 0.03	0.25 (≈ 0.297 µM)	8 (≈ 9.5 µM)	16 (≈ 19 µM)	0.125 (≈ 0.148 µM)	
CC[C@H]1OC(=O)[C@@](C)(F)C(=O)[C@H](C)[C@@H](O[C@@H]2O[C@H](C)C[C@H](N(C)C)[C@H]2O)[C@](C)(OC)C[C@@H](C)C(=O)[C@H](C)[C@H]2N(CCCOC(=O)Nc3cccc(C(F)(F)F)c3)C(=O)O[C@]12C	0.5 (≈ 0.571 µM)	1 (≈ 1.14 µM)	2 (≈ 2.28 µM)	0.5 (≈ 0.571 µM)	8 (≈ 9.13 µM)	1 (≈ 1.14 µM)	64 (≈ 73.1 µM)	0.5 (≈ 0.571 µM)	4 (≈ 4.57 µM)	0.5 (≈ 0.571 µM)	0.25 (≈ 0.285 µM)	1 (≈ 1.14 µM)	12.4	< 0.03	2 (≈ 2.28 µM)	64 (≈ 73.1 µM)		2 (≈ 2.28 µM)	< 0.03
CC[C@H]1OC(=O)[C@@](C)(F)C(=O)[C@H](C)[C@@H](O[C@@H]2O[C@H](C)C[C@H](N(C)C)[C@H]2O)[C@](C)(OC)C[C@@H](C)C(=O)[C@H](C)[C@H]2N(CCCOC(=O)Nc3cc(C)ccc3C)C(=O)O[C@]12C		0.125 (≈ 0.15 µM)				0.125 (≈ 0.15 µM)	8 (≈ 9.57 µM)		0.125 (≈ 0.15 µM)				33.1			8 (≈ 9.57 µM)	16 (≈ 19.1 µM)		
CC[C@H]1OC(=O)[C@H](C)C(=O)[C@H](C)[C@@H](O[C@@H]2O[C@H](C)C[C@H](N(C)C)[C@H]2O)[C@](C)(OC)C[C@@H](C)C(=O)[C@H](C)[C@H]2N(CCCOC(=O)Nc3ccc(C)cc3)C(=O)O[C@]12C	0.125 (≈ 0.155 µM)	0.125 (≈ 0.155 µM)	0.25 (≈ 0.311 µM)	0.125 (≈ 0.155 µM)	1 (≈ 1.24 µM)	0.25 (≈ 0.311 µM)	32 (≈ 39.8 µM)	0.125 (≈ 0.155 µM)	1 (≈ 1.24 µM)	< 0.03	0.125 (≈ 0.155 µM)	0.5 (≈ 0.622 µM)	20.8	< 0.03	0.5 (≈ 0.622 µM)	32 (≈ 39.8 µM)		0.25 (≈ 0.311 µM)	< 0.03
CC[C@H]1OC(=O)[C@@](C)(F)C(=O)[C@H](C)[C@@H](O[C@@H]2O[C@H](C)C[C@H](N(C)C)[C@H]2O)[C@](C)(OC)C[C@@H](C)C(=O)[C@H](C)[C@H]2N(CCCOC(=O)Nc3cccc(Cl)c3)C(=O)O[C@]12C	< 0.03	0.125 (≈ 0.148 µM)	0.125 (≈ 0.148 µM)	0.03 (≈ 0.0356 µM)	0.5 (≈ 0.594 µM)	2.25 (≈ 2.67 µM)	8 (≈ 9.5 µM)	< 0.03		< 0.03	< 0.03	0.125 (≈ 0.148 µM)	43.3	< 0.03	0.125 (≈ 0.148 µM)	4 (≈ 4.75 µM)	16 (≈ 19 µM)	0.125 (≈ 0.148 µM)	
CC[C@H]1OC(=O)[C@H](C)C(=O)[C@H](C)[C@@H](O[C@@H]2O[C@H](C)C[C@H](N(C)C)[C@H]2O)[C@](C)(OC)C[C@@H](C)C(=O)[C@H](C)[C@H]2N(CCCOC(=O)Nc3cccc(C)c3)C(=O)O[C@]12C	0.5 (≈ 0.622 µM)	0.5 (≈ 0.622 µM)	1 (≈ 1.24 µM)	2 (≈ 2.49 µM)	0.5 (≈ 0.622 µM)	0.5 (≈ 0.622 µM)	32 (≈ 39.8 µM)	0.5 (≈ 0.622 µM)	1 (≈ 1.24 µM)	0.5 (≈ 0.622 µM)	0.5 (≈ 0.622 µM)	1 (≈ 1.24 µM)	71.7	< 0.03	1 (≈ 1.24 µM)	32 (≈ 39.8 µM)		1 (≈ 1.24 µM)	< 0.03
